We go through one compound from US20250352482A1, “AMORPHOUS DOSAGE FORM CONTAINING EBSELEN” (SOUND PHARMACEUTICALS INC., priority 2022, published 2025).

For this data set the following is noted: minipig, in vivo.

Procedure: Method: The purpose of this study was to determine the pharmacokinetics of ebselen and its metabolites in male and female bama mini-pigs following twice daily (BID) oral administration of two test formulations, control ebselen capsules (Formulation 1) and ebselen-ASD/HME capsules (Formulation 2) at 200 mg/animal for 2.5 days. Three male and three female naïve Bama mini-pigs were assigned to this study. In phase 1, animals received five oral doses (BID on day 1, BID on day 2 and QD on day 3) of Formulation 1: each dose comprised control ebselen capsules (1 (Ebselen capsule, 200 mg+3 placebo capsules). After one week wash out period, the same animals received five oral doses (BID on day 1, BID on day 2 and QD on day 3) of Formulation 2: each dose comprised four Ebselen ASD/HME capsules (Formulation 2), 50 mg each. In each phase, there were 12 hour intervals between dosing. Blood samples were collected at 0.5, 1, 2, 3, 4, 6, 8 and 12 hours post the first and fifth dosing. Concentrations of ebselen, and ebselen glucuronide metabolite in plasma samples were determined by LC-MS/MS.

Take `O=c1c2ccccc2[se]n1-c1ccccc1` [ebselen, 2-Phenyl-1,2-benzoselenazol-3 (2H)-one]: the “accumulation on systemic exposure to ebselen” value is on record as “No obvious accumulation”.
